The values that follow come from article PMC4302056 (Bioorganic & medicinal chemistry, 2014).

Assay [1] concerns Histoplasma capsulatum. The assay is described as follows: microbe, parasite or virus in culture. In kind it is cell-based. Conditions: for MIC50: Histoplasma capsulatum, 96 h, read-out: Histoplasma capsulatum MIC50; for anti-Histoplasma activity (in words): qualitative statement.
Assay [2] relates to Candida albicans. Conditions: cited from earlier work.
Assay [3] relates to Blastomyces dermatitidis. Conditions: cited from earlier work.
In assay [4] the test system is Histoplasma yeast. Conditions: inhibitory vs microbicidal; cited from earlier work.
In assay [5] the test system is Aspergillus fumigatus. Conditions: cited from earlier work.
In assay [6] the test system is Cryptococcus neoformans. In kind it is cell-based.
The test system of assay [7] is DU-145 human prostate cancer cells. Conditions: read-out: IC50 of in vitro proliferation inhibition; cited from earlier work.

Molecules are shown by their SMILES. Converted amounts (≈) assume the structure as drawn. “Also recorded” adds a separate entry of the source.

Regarding `O=C(Nc1ncc(Cc2ccccc2)s1)C1CCOCC1` [Compound 5b, N-(5-Benzylthiazol-2-yl)tetrahydro-2H-pyran-4-carboxamide], the MIC50 in assay [1] was > 10 µM.

Turning to `O=C(CCC1CCCCC1)Nc1nnc(Cc2ccccc2)s1` [Compound 14a, N-(5-Benzyl-1,3,4-thiadiazol-2-yl)-3-cyclohexylpropanamide], in assay [1], the MIC50 was > 10 µM and the “anti-Histoplasma activity (in words)” value is “abolished or reduced activity”.

Consider `O=C(CC1CCCCC1)Nc1ncc(CC2CCCCC2)s1` [Compound 13c, N-[5-(Cyclohexylmethyl)thiazol-2-yl]-2-cyclohexaneacetamide], for which, in assay [1], the MIC50 was > 10 µM and the “anti-Histoplasma activity (in words)” value is reported as “no activity; also recorded: abolished activity”.

Consider `O=C(Nc1ncc(Cc2cccc3ccccc23)s1)C1CCCCC1` [Compound 9d, N-[5-(1-Naphthalenylmethyl)thiazol-2-yl]cyclohexanecarboxamide], for which the “inhibition of in vitro growth” value in assay [2], in assay [3] and in assay [5] was “does not inhibit” throughout. For the same compound, the “type of antifungal action” value in assay [4] was “inhibitory rather than microbicidal action”. The “anti-Cryptococcus activity (in words)” value in assay [6] was “anti-Cryptococcus activity”.

As to `CC(C)(C)OC(=O)Nc1ncc(C(O)c2ccccc2)s1` (stereo not shown) [Compound 2a, tert-Butyl{5-[hydroxy(phenyl)methyl]thiazol-2-yl}carbamate], in assay [1], the MIC50 was > 10 µM and the “anti-Histoplasma activity (in words)” value was “lack of activity”.

`O=C(Nc1ncc(Cc2cccc3ccccc23)s1)C1CCCC1` [Compound 9c, N-[5-(1-Naphthalenylmethyl)thiazol-2-yl]cyclopentanecarboxamide]: the “anti-Cryptococcus activity (in words)” value in assay [6] is given as “anti-Cryptococcus activity”.

As for `CC(C)C(=O)Nc1ncc(Cc2cccc3ccccc23)s1` [Compound 9b, N-[5-(1-Naphthalenylmethyl)thiazol-2-yl]isobutyramide], the “anti-Cryptococcus activity (in words)” value in assay [6] is on record as “lost activity”.

Take `O=C(Nc1ncc(-c2ccccc2)s1)C1CCCCC1` [Compound 12b, N-(5-Phenylthiazol-2-yl)cyclohexanecarboxamide]: the MIC50 in assay [1] was > 10 µM.

Regarding `O=C(CC1CCCCC1)Nc1nc(C23CC4CC(CC(C4)C2)C3)cs1` [Compound 15f, N-[4-(Adamantan-1-yl)thiazol-2-yl]-2-cyclohexylacetamide], the “anti-Histoplasma activity (in words)” value in assay [1] was “abolished activity”.

Regarding `O=C(/C=C/C1CCCCC1)Nc1ncc(Cc2ccccc2)s1` [Compound 4g, (E)-N-(5-Benzylthiazol-2-yl)-3-cyclohexylacrylamide], the MIC50 in assay [1] is > 10 µM.

For the compound `O=C(Nc1ncc(Cc2ccccc2)s1)C1CCCCC1` [Compound 4d, N-(5-Benzylthiazol-2-yl)cyclohexanecarboxamide], the “anti-Cryptococcus activity (in words)” value in assay [6] is recorded as “anti-Cryptococcus activity”. In addition, in assay [1], the MIC50 was 1.6 ± 0.1 µM (≈ 0.481 µg/mL).

On to `O=C(Nc1ncc(Cc2ccccc2)s1)C1CCCC1` [Compound 4c, N-(5-Benzylthiazol-2-yl)cyclopentanecarboxamide], for which the “anti-Cryptococcus activity (in words)” value in assay [6] is “anti-Cryptococcus activity”. Further, the MIC50 in assay [1] was 1.6 ± 0.1 µM (≈ 0.458 µg/mL).

`O=C(Nc1nc(-c2ccccc2)cs1)C1CCCC1` [Compound 15a, N-(4-Phenylthiazol-2-yl)cyclopentanecarboxamide]: in assay [1], the “anti-Histoplasma activity (in words)” value is “no activity”.

Consider `O=C(Nc1ncc(Cc2ccccc2)s1)c1ccccc1` [Compound 4h, N-(5-Benzylthiazol-2-yl)benzamide], for which the MIC50 in assay [1] is > 10 µM.

With `COc1ccc(Cc2cnc(NC(=O)/C=C/c3ccco3)s2)cc1` [Compound 6d, 3-(2-Furyl)-N-[5-(4-methoxybenzyl)-1,3-thiazol-2-yl]acrylamide], in assay [7], the IC50 was 15 nM. Moreover, in assay [1], the “anti-Histoplasma activity (in words)” value was “did not have any antifungal activity”.

Turning to `CC(C)C(=O)Nc1ncc(CC2CCCCC2)s1` [Compound 13a, N-[5-(Cyclohexylmethyl)thiazol-2-yl]isobutyramide], in assay [1], the MIC50 is > 10 µM and the “anti-Histoplasma activity (in words)” value was “no activity”.

`CN(C(=O)CCC1CCCCC1)c1ncc(Cc2ccccc2)s1` [Compound 14b, N-(5-Benzylthiazol-2-yl)-3-cyclohexyl-N-methylpropanamide]: in assay [1], the MIC50 was > 10 µM and the “anti-Histoplasma activity (in words)” value is listed as “abolished or reduced activity”.

As to `O=C(CCC1CCCCC1)Nc1nc(-c2ccccc2)cs1` [Compound 15b, N-(4-Phenylthiazol-2-yl)-3-cyclohexanepropanamide], the “anti-Histoplasma activity (in words)” value in assay [1] is given as “no activity”.

As for `Nc1ncc(Cc2ccccc2)s1` [Compound 3a, 5-Benzyl-2-thiazolamine], the MIC50 in assay [1] is > 10 µM.

Regarding `O=C(Nc1ncc(CC2CCCCC2)s1)c1ccccc1` [Compound 13e, N-[5-(Cyclohexylmethyl)thiazol-2-yl]benzamide], in assay [1], the MIC50 was found to be 4.6 µM (≈ 1.38 µg/mL).

As to `O=C(Nc1ncc(-c2ccccc2)s1)C1CCCC1` [Compound 12a, N-(5-Phenylthiazol-2-yl)cyclopentanecarboxamide], in assay [1], the MIC50 is > 10 µM.

`O=C(CCC1CCCCC1)Nc1ncc(Cc2cccc3ccccc23)s1` [Compound 9f, N-[5-(1-Naphthalenylmethyl)thiazol-2-yl]-3-cyclohexanepropanamide]: the “anti-Cryptococcus activity (in words)” value in assay [6] is reported as “lost activity”.

In the case of `O=C(Nc1ncc(CC2CCCCC2)s1)C12CC3CC(CC(C3)C1)C2` [Compound 13f, N-[5-(Cyclohexylmethyl)thiazol-2-yl]adamantane-1-carboxamide], in assay [1], the MIC50 is > 10 µM and the “anti-Histoplasma activity (in words)” value is “no activity”.

Consider `O=C(Nc1nc(C23CC4CC(CC(C4)C2)C3)cs1)C1CCCCC1` [Compound 15e, N-[4-(Adamantan-1-yl)thiazol-2-yl]cyclohexanecarboxamide], for which the MIC50 in assay [1] was found to be 2.5 ± 0.1 µM (≈ 0.861 µg/mL).

With `O=C(CC1CCCCC1)Nc1ncc(Cc2ccccc2)s1` [Compound 4e, N-(5-Benzylthiazol-2-yl)-2-cyclohexylacetamide], in assay [6], the “anti-Cryptococcus activity (in words)” value is reported as “lost activity”.

Turning to `O=C(CC1CCCCC1)Nc1ncc(Cc2cccc3ccccc23)s1` [Compound 9e, N-[5-(1-Naphthalenylmethyl)thiazol-2-yl]-2-cyclohexaneacetamide], in assay [6], the “anti-Cryptococcus activity (in words)” value is recorded as “lost activity”.

For the compound `O=C(Nc1nc(C23CC4CC(CC(C4)C2)C3)cs1)C1CCCC1` [Compound 15d, N-[4-(Adamantan-1-yl)thiazol-2-yl]cyclopentanecarboxamide], the MIC50 in assay [1] came out at 7.4 µM (≈ 2.45 µg/mL).

Turning to `O=C(Nc1ncc(Cc2ccccc2)s1)C1CCSCC1` [Compound 5a, N-(5-Benzylthiazol-2-yl)tetrahydro-2H-thiopyran-4-carboxamide], the MIC50 in assay [1] came to 4.8 µM (≈ 1.53 µg/mL).

For the compound `O=C(Nc1ncc(CCc2ccccc2)s1)C1CCCC1` [Compound 11a, N-(5-Phenethylthiazol-2-yl)cyclopentanecarboxamide], the MIC50 in assay [1] turned out to be 0.9 ± 0.1 µM (≈ 0.27 µg/mL).

As for `O=C(CCC1CCCCC1)Nc1ncc(CCc2ccccc2)s1` [Compound 11b, N-(5-Phenethylthiazol-2-yl)-3-cyclohexanepropanamide], the MIC50 in assay [1] turned out to be 0.7 ± 0.1 µM (≈ 0.24 µg/mL).

Regarding `NC(=O)c1cc(-c2ccccc2)sc1NC(=O)c1ccc2c(c1)OCCO2` [4H2, reference compound], in assay [1], the “anti-Histoplasma activity (in words)” value is given as “abolished or reduced activity”.

Take `O=C(CCC1CCCCC1)Nc1ncc(Cc2ccccc2)s1` [Compound 4f, N-(5-Benzylthiazol-2-yl)-3-cyclohexylpropanamide]: the “anti-Cryptococcus activity (in words)” value in assay [6] is reported as “lost activity”.

For the compound `O=C(Nc1ncc(Cc2ccccc2)s1)c1cnc(-c2cccs2)s1` [Compound 5h, N-(5-Benzylthiazol-2-yl)-2-(thiophen-2-yl)thiazole-5-carboxamide], in assay [1], the MIC50 was > 10 µM.

On to `O=C(Nc1ncc(Cc2ccccc2)s1)C(F)(F)F` [Compound 4a, N-(5-Benzylthiazol-2-yl)trifluoroacetamide], for which the MIC50 in assay [1] is > 10 µM.

On to `O=C(Nc1ncc(Cc2ccccc2)s1)N1CCOCC1` [Compound 5f, N-(5-Benzylthiazol-2-yl)morpholine-4-carboxamide], for which, in assay [1], the MIC50 was > 10 µM.

Regarding `Cc1nc(NC(=O)CCC2CCCCC2)sc1Cc1ccccc1` [Compound 14c, N-(5-Benzyl-4-methylthiazol-2-yl)-3-cyclohexylpropanamide], in assay [1], the MIC50 was > 10 µM and the “anti-Histoplasma activity (in words)” value is “reduced anti-Histoplasma activity or were inactive”.

Take `O=C(CCC1CCCCC1)Nc1ncc(Cc2cccc(C(F)(F)F)c2)s1` [Compound 7a, N-{5-[3-(Trifluoromethyl)benzyl]thiazol-2-yl}-3-cyclohexanepropanamide]: in assay [1], the “anti-Histoplasma activity (in words)” value is “lack of activity”.

Regarding `CC(C)C(=O)Nc1ncc(Cc2ccccc2)s1` [Compound 4b, N-(5-Benzylthiazol-2-yl)isobutyramide], the MIC50 in assay [1] was 6.7 µM (≈ 1.74 µg/mL).
